Experimental data: PMC6177136, “Hybrid topoisomerase I and HDAC inhibitors as dual action anticancer agents” (PLoS ONE, 2018)

Legend:
OCI-LY3 = test: Cytotoxicity assay (MTT, 72 h) OCI-LY3; type: cell-based, Human; conditions: Homo sapiens, OCI-Ly3; 72 h, MTT assay; read-out: IC50 ± SD OCI-LY3
Experimental: Human tumor cells were seeded in 96-well cell culture plastic plates, allowed to attach, and exposed to scalar concentrations of the test compounds.

Jurkat-cp = test: Cytotoxicity assay (MTT, 72 h) Jurkat-cp; type: cell-based; conditions: Homo sapiens, read-out: IC50 ± SD Jurkat-cp
KM-H2 = test: Cytotoxicity assay (MTT, 72 h) KM-H2; type: cell-based, Human; conditions: Homo sapiens, KM-H2; 72 h, MTT assay; read-out: IC50 ± SD KM-H2
MM432 = test: Cytotoxicity assay, primary mesothelioma MM432; type: cell-based, Human; conditions: Homo sapiens; sarcomatoid, 72 h, SBR assay; read-out: IC50 ± SD MM432
MM288 = test: Cytotoxicity assay, primary mesothelioma MM288; type: cell-based, Human; conditions: Homo sapiens; epithelioid, 72 h, SBR assay; read-out: IC50 ± SD MM288
Acetylated Histone H4 = test: Western blot, acetylation of histone H4 in NCI-H460 cells; type: cell-based, Human; conditions: 24 h; SN38 0.05 μM, SAHA 5 μM, 3b and 3d 0.125–0.2–0.5 μM
Experimental: (§1) The supernatant, containing the total proteins extracts, were transferred in new vials. The protein concentration was measured by Bradford Protein Assay. Equal amounts of proteins for each sample were then resolved by SDS-PAGE and loaded on 10–12% polyacrilamide gels. The proteins were then transferred on nitrocellulose membranes. Molecular weights were estimated based upon the relative migration with molecular weight protein markers.
(§2) The non-specific binding was blocked by incubation of membranes in TBS-tween (25 mM Tris, 150 mM NaCl, 0.1% Tween 20) with 5% nonfat dry milk (BIORAD, Milan) for 60 minutes. Subsequently, the membrane was incubated overnight with primary antibodies: anti-Histone H4 (Millipore, 1:500), anti-acetyl-H4 (Santa Cruz, 1:1000) anti-p21 (Santa Cruz, 1:1000), anti-acetyl-tubulin (abcam, 1:1000), anti-α-tubulin (Sigma, 1:5000), anti β-actin (Sigma, 1:5000) and anti-Topoisomerase 1 (Santa Cruz, 1:500). After three washes with TBST blots were incubated with HRP-coniugated secondary anti-mouse and anti-rabbit (Santa Cruz, 1:5000) 1 hour at room temperature. After three washes with TBST the blots were developed with ECL substrate (GE Healthcare) and chemiluminescence detected by ChemiDoc Imaging System (Biorad). The optical density of the protein bands detected by western blotting was normalized on α -tubulin levels and analyzed by ChemiDoc software (Biorad). […]

MM404 = test: Cytotoxicity assay, primary mesothelioma MM404; type: cell-based, Human; conditions: Homo sapiens; epithelioid, 72 h, SBR assay; read-out: IC50 ± SD MM404
[1] = system: series of human tumor cell lines; test: Antiproliferative activity, series of human tumor cell lines (summary); type: cell-based; conditions: span over the cell line panel, 72 h, SRB assay, read-out: IC50 across the human tumor cell lines of Table 3
HepG2 = test: Cytotoxicity assay (SRB, 72 h) HepG2; type: cell-based, Human; conditions: Homo sapiens, HepG2, read-out: IC50 ± SD HepG2
REC-1 = test: Cytotoxicity assay (MTT, 72 h) REC-1; type: cell-based; conditions: Homo sapiens, Rec1, read-out: IC50 ± SD REC-1
HT29 = test: Cytotoxicity assay (SRB, 72 h) HT29; type: cell-based, Human; conditions: Homo sapiens, HT-29, read-out: IC50 ± SD HT29
Top1 = test: Western blot, Top1 expression in NCI-H460 cells; type: cell-based, Human; conditions: 24 h; SAHA 5 μM, SN38 0.05 μM, 3d 0.125–0.2–0.5 μM
Experimental: as §1, §2

A2780 = test: Cytotoxicity assay (SRB, 72 h) A2780; type: cell-based, Human; conditions: Homo sapiens, A2780, read-out: IC50 ± SD A2780
CycD1 = test: Western blot, CycD1 in NCI-H460 cells; type: cell-based, Human; conditions: 24 h; SAHA 5 μM, SN38 0.05 μM, 3d 0.125–0.2–0.5 μM
Experimental: as §1
The non-specific binding was blocked by incubation of membranes in TBS-tween (25 mM Tris, 150 mM NaCl, 0.1% Tween 20) with 5% nonfat dry milk (BIORAD, Milan) for 60 minutes. Subsequently, the membrane was incubated overnight with primary antibodies: anti-Histone H4 (Millipore, 1:500), anti-acetyl-H4 (Santa Cruz, 1:1000) anti-p21 (Santa Cruz, 1:1000), anti-acetyl-tubulin (abcam, 1:1000), anti-α-tubulin (Sigma, 1:5000), anti β-actin (Sigma, 1:5000) and anti-Topoisomerase 1 (Santa Cruz, 1:500). After three washes with TBST blots were incubated with HRP-coniugated secondary anti-mouse and anti-rabbit (Santa Cruz, 1:5000) 1 hour at room temperature. After three washes with TBST the blots were developed with ECL substrate (GE Healthcare) and chemiluminescence detected by ChemiDoc Imaging System (Biorad). The optical density of the protein bands detected by western blotting was normalized on α -tubulin levels and analyzed by ChemiDoc software (Biorad).
Cells were lysed in 0.5% NP-40 and 40 μg of total proteins were loaded on NuPAGE 4–12% (Invitrogen), transferred to a nitrocellulose paper and probed with specific antibodies.

U937 = test: Cytotoxicity assay (MTT, 72 h) U937; type: cell-based; conditions: Homo sapiens, U-937, read-out: IC50 ± SD U937
Acetylated Tubulin = test: Western blot, acetylation of tubulin in NCI-H460 cells; type: cell-based, Human; conditions: 24 h; SN38 0.05 μM, SAHA 5 μM, 3b and 3d 0.125–0.2–0.5 μM
Experimental: as §1, §2

HeLa = test: Cytotoxicity assay (SRB, 72 h) HeLa; type: cell-based, Human; conditions: Homo sapiens, HeLa, read-out: IC50 ± SD HeLa
RAJI = test: Cytotoxicity assay (MTT, 72 h) RAJI; type: cell-based; conditions: Homo sapiens, read-out: IC50 ± SD RAJI
HDAC10 = HDAC10 (Homo sapiens, UniProt Q969S8); test: HDAC profiling HDAC10; type: biochemical; conditions: purified isoform, 10 concentrations from 10 μM, triplicate
DU145 = test: Cytotoxicity assay (SRB, 72 h) DU145; type: cell-based, Human; conditions: Homo sapiens, DU-145, read-out: IC50 ± SD DU145
NCI-H460 NSCLC cells = test: FACS analysis of cell cycle and apoptosis; type: cell-based, Human; conditions: 72 h at own IC80 dose, PI staining
MAVER-2 = test: Cytotoxicity assay (MTT, 72 h) MAVER-2; type: cell-based, Human; conditions: Homo sapiens, read-out: IC50 ± SD MAVER-2
MM491 = test: Cytotoxicity assay, primary mesothelioma MM491; type: cell-based, Human; conditions: Homo sapiens; biphasic, 72 h, SBR assay; read-out: IC50 ± SD MM491
H929 = test: Cytotoxicity assay (MTT, 72 h) H929; type: cell-based; conditions: Homo sapiens, NCI-H929, read-out: IC50 ± SD H929
RAMOS = test: Cytotoxicity assay (MTT, 72 h) RAMOS; type: cell-based; conditions: Homo sapiens, read-out: IC50 ± SD RAMOS
MM317 = test: Cytotoxicity assay, primary mesothelioma MM317; type: cell-based, Human; conditions: Homo sapiens; epithelioid, 72 h, SBR assay; read-out: IC50 ± SD MM317

HDAC10, sequence (Q969S8 whole entry, canonical isoform): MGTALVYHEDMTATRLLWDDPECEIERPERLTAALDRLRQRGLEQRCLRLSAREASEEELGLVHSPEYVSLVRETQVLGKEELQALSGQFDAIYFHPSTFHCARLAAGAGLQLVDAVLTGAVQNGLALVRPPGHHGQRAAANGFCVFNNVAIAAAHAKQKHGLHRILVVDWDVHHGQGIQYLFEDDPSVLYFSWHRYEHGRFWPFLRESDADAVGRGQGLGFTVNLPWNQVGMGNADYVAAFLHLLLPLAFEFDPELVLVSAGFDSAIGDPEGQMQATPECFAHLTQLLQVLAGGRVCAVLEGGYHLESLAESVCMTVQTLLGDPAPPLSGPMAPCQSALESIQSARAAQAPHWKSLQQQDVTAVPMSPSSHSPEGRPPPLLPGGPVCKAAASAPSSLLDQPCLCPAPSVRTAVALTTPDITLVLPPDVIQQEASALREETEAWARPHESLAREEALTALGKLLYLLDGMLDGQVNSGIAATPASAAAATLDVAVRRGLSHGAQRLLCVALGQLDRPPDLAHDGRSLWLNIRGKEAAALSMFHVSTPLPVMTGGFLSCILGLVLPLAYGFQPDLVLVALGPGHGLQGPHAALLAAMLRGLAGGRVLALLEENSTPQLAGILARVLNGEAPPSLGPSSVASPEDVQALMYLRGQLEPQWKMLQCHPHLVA

With `CC[C@@]1(O)C(=O)OCc2c1cc1n(c2=O)Cc2c-1nc1ccc(O)cc1c2C=NOCCCCCC(=O)NO` [Compound 3d, 6-(10-hydroxycamptothecin-7-ylmethyleneaminooxy)-hexanoic acid hydroxyamide] the IC50 (OCI-LY3) was 18 ± 5 nM, the IC50 (Jurkat-cp) was 230 ± 50 nM and the IC50 (KM-H2) was 390 ± 100 nM. For the same compound, the IC50 (MM432) was 160 ± 30 nM, the IC50 (MM288) was 480 ± 100 nM and the “accumulation of acetylated histone H4” value (Acetylated Histone H4) was “H4 and tubulin acetylation in a dose dependent manner”. It also gave an IC50 (MM404) of 1400 ± 300 nM, an IC50 [1] of 30 to 400 nM and an IC50 (HepG2) of 110 ± 30 nM. The IC50 (REC-1) was 180 ± 40 nM, the IC50 (HT29) was 390 ± 100 nM and the “expression of Top1” value (Top1) was “drastically reduced the expression of Top1”. The IC50 (A2780) was 270 ± 80 nM, the CycD1 regulation (CycD1) was “didn’t show any effect” and the IC50 (U937) was 180 ± 50 nM. For the same compound, the “accumulation of acetylated tubulin” value (Acetylated Tubulin) was “H4 and tubulin acetylation in a dose dependent manner”, the IC50 (HeLa) was 180 ± 50 nM and the IC50 (RAJI) was 77 ± 20 nM. The IC50 (HDAC10) was 224 nM, the IC50 (DU145) was 70 ± 3 nM and the “G0/1 (%)” value (NCI-H460 NSCLC cells) was 12.1%. The “G2/M (%)” value (NCI-H460 NSCLC cells) was 11.9%, the “S (%)” value (NCI-H460 NSCLC cells) was 76.0% and the “Sub-G0/1 (%)” value (NCI-H460 NSCLC cells; apoptosis) was 15.2%. For the same compound, the IC50 (MAVER-2) was 12 ± 1 nM, the IC50 (MM491) was 870 ± 300 nM and the IC50 (H929) was 1100 ± 400 nM. The IC50 (RAMOS) was 990 ± 100 nM and the IC50 (MM317) was 850 ± 200 nM.
